Measured values as given in patent publication US8455469B2, “Use of norgestimate as a selective inhibitor of TRPC3, TRPC6 and TRPC7 ion channels” (Sanofi, priority 2007, dated 2013).
Entries after “also recorded” stand apart in the source; their conditions may differ.

Legend:
TRPC5 [1] = molecular target: T1, TRPC5 (Homo sapiens, UniProt Q9UL62); test: Whole-cell patch clamp, AlF4- activated TRPC5 HEK293 cells; format: cell-based; settings: 10 μM, -70 mV, n=20
T1 construct: expressed in transfected cells; host or cells: HEK293 FITR (inducible expression)
T1 sequence (Q9UL62 1-973): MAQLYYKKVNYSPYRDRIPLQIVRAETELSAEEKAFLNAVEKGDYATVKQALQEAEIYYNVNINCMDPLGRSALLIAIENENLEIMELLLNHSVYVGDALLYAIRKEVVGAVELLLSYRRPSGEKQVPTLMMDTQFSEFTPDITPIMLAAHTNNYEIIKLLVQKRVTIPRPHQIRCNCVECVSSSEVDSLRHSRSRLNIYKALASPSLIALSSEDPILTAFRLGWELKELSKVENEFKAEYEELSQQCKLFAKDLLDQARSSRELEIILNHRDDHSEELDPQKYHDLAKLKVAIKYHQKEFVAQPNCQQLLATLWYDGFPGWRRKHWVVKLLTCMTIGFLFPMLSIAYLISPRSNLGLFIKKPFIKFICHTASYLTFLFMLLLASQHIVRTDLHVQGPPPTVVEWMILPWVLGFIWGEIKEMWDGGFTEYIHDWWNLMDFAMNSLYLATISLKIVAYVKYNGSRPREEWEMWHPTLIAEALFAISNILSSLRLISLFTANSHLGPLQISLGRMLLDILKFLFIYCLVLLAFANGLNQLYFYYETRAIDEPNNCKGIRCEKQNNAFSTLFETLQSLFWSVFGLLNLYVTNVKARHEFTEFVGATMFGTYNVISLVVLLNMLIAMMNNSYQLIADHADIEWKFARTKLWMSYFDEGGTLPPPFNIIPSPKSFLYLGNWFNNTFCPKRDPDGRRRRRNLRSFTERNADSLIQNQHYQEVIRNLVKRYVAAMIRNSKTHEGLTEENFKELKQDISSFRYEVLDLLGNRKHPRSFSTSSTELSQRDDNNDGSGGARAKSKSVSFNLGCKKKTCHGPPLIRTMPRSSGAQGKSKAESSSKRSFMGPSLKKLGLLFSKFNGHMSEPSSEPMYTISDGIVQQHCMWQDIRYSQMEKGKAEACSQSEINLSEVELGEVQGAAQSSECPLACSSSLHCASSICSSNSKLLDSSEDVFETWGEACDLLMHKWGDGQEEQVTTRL
Experimental: Channels were indirectly excited with the same stimulus for better comparability of the norgestimate effect. Aluminium tetrafluoride (AIF^4−) applied intracellularly via the patch pipette activates G-proteins by mimicking GTP (Sternweis & Gilman, 1982; Bigay et al., 1987).
Since these channels are potentiated by micromolar La^3+ concentrations (Jung et al., 2003), 2-aminoethoxydiphenyl borate (2-APB), a characterized TRPC5 blocker (Xu et al., 2005) was used instead.
Effect of 10 μM norgestimate (NG) on whole-cell currents evoked by AlF4^− infusion into induced TRPC6— (A) and TRPC5 HEK 293 (B) cells. Whole cell currents recorded at −70 mV (left panels) and the corresponding current-voltage (I-V) relationships are shown (right panels). […] The curves were obtained during voltage ramps from −100 to +80 mV. (C) Statistical analysis of the norgestimate effect on TRPC5— and TRPC6-mediated currents.

TRPC5 [2] = molecular target: T1, TRPC5; test: FLIPR Ca2+ influx measurement, trypsin-stimulated TRPC5 HEK293 cells; format: cell-based; settings: 200 nM trypsin
From the text: In general, cells are provided which express a TRPC channel. Such cells can be produced using genetic methods known to a person skilled in the art. After having induced the expression of the TRPC channel, cells are usually plated into e.g. microtiter plates and grown. Usually the cells grow at the bottom of multiwell plates and are fixed. Thereafter, the cells are generally washed and loaded with a dye in a suitable loading buffer, preferably with a fluorescent dye such as fluo4am. After having removed the loading buffer, the cells are incubated with the test compound or modulator, in particular with a biochemical or chemical test compound as described above, e.g. in the form of a chemical compound library. Ca^2+ measurements can be carried out using e.g. a Fluorescence Imaging Plate Reader (FLIPR). To stimulate Ca^2+ influx through the TRPC channel a channel activator such as OAG should generally be applied.
When these experiments were performed, no direct physiological stimuli of TRPC4 and TRPC5 were known. Therefore, both channels had to be stimulated indirectly, e.g. by application of trypsin, a protease-activated receptor (PAR) stimulating protease. […] Kinetics and quantity of calcium store release in cells treated with 30 μM norgestimate were not changed compared to untreated cells. […]

SMILES: C#C[C@]1(OC(C)=O)CC[C@H]2[C@@H]3CCC4=C/C(=N/O)CC[C@@H]4[C@H]3CC[C@@]21CC [norgestimate, D-17β-acetoxy-B-ethyl-17α ethinyl-gon-4-en-3-one oxime]
- TRPC5 current blocked (TRPC5 [1]): 25.9±5.7%
- inhibitory effect on TRPC5-mediated Ca2+ influx (TRPC5 [2]; 30 μM norgestimate): only small inhibitory effects; also recorded: slightly reduced
- IC50 (TRPC5 [2]; FLIPR, n=4): > 30 µM
